# Measurements reported in patent US20190093170A1, “USE OF TRANSLATIONAL PROFILING TO IDENTIFY TARGET MOLECULES FOR THERAPEUTIC TREATMENT” (THE REGENTS OF THE UNIVERSITY OF CALIFORNIA, priority 2013, published 2019).
# Assays:
# [1] = system: PC3 human prostate cancer cells; test: RNA-seq mRNA abundance (part of ribosome profiling experiment); assay type: cell-based; details: for PP242 mRNA: 3-hour treatment with PP242 (2.5 μM) in PC3 cells;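 on all read-outs here: average poly(A) RNA-seq read density per codon over the coding sequence, excluding 15 initial and 5 final codons, mapped to hg19 transcripts, taken as mRNA abundance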
# Experimental: Cells were subsequently treated with cycloheximide (100 μg ml^−1; Sigma) and detergent lysis was performed in the dish. The lysate was treated with DNase and clarified, and a sample was taken for RNA-seq analysis. Lysates were subjected to ribosome footprinting by nuclease treatment. Ribosome-protected fragments were purified, and deep sequencing libraries were generated from these fragments, as well as from poly(A) mRNA purified from non-nuclease-treated lysates. These libraries were analyzed by sequencing on an Illumina GAII.
# Ribosome footprint and RNA-seq sequencing reads were aligned against a library of transcripts from the UCSC Known Genes database GRCh37/hg19. The first 25 nucleotides of each read were aligned using Bowtie and this initial alignment was then extended to encompass the full fragment-derived portion of the sequencing read while excluding the linker sequence. Read density profiles were then constructed for the canonical transcript of each gene, using only reads with 0 or 1 total mismatches between the read sequence and the reference sequence, comprised of the transcript fragment followed by the linker sequence. Footprint reads were assigned to an A site nucleotide at position +15 to +17 of the alignment, based on the total fragment length; mRNA reads were assigned to the first nucleotide of the alignment. The average read density per codon was then computed for the coding sequence of each transcript, excluding the first 15 and last 5 codons, which can display atypical ribosome accumulation.
# Average read density was used as a measure of mRNA abundance (RNA-seq reads) and of protein synthesis (ribosome profiling reads). For most analyses, genes were filtered to require at least 256 reads in the relevant RNA-seq samples. Translational efficiency was computed as the ratio of ribosome footprint read density to RNA-seq read density, scaled to normalize the translational efficiency of the median gene to 1.0 after excluding regulated genes (log 2 fold-change+1.5 after normalizing for the all-gene median). Changes in protein synthesis, mRNA abundance and translational efficiency were similarly computed as the ratio of read densities between different samples, normalized to give the median gene a ratio of 1.0. This normalization corrects for differences in the absolute number of sequencing reads obtained for different libraries.
# [2] = system: YB1, MTA1, vimentin, and CD44; test: Western blot and qPCR of invasion genes in PC3 cells; assay type: cell-based, human; details: starting at 6 hr of treatment
# Experimental: Western blot analysis was performed as previously described (Hsieh et al., Cancer Cell 17:249-261 (2010)) with antibodies specific to phospho-AKT^S473 (Cell Signaling), AKT (Cell Signaling), phospho-p70S6K^T389 (Cell Signaling), phospho-rpS6^S240/244 (Cell Signaling), rpS6 (Cell Signaling), phospho-4EBP1^T37/46 (Cell Signaling), 4EBP1 (Cell Signaling), 4EBP2 (Cell Signaling), YB1 (Cell Signaling), CD44 (Cell Signaling), LEF1 (Cell Signaling), PTEN (Cell Signaling), eEF2 (Cell Signaling), GAPDH (Cell Signaling), vimentin (BD Biosciences), eIF4E (BD Biosciences), Flag (Sigma), β-actin (Sigma), MTA1 (Santa Cruz Biotechnology), Twist (Santa Cruz Biotechnology), rpL28 (Santa Cruz Biotechnology), HA (Covance) and rictor (Bethyl Laboratory).
# RNA was isolated using the manufacturer's protocol for RNA extraction with TRIzol Reagent (Invitrogen) using the Pure Link RNA mini kit (Invitrogen). RNA was DNase-treated with Pure Link Dnase (Invitrogen). DNase-treated RNA was transcribed to cDNA with SuperScript III First-Strand Synthesis System for RT-PCR (Invitrogen), and 1 μl of cDNA was used to run a SYBR green detection qPCR assay (SYBR Green Supermix and MyiQ2, Biorad). Primers were used at 200 nM.
smiles,measurement,setting,value
CC(C)n1nc(-c2cc3cc(O)ccc3[nH]2)c2c(N)ncnc21 [PP242],PP242 mRNA,[1]; gene ACD,0.20
same,mRNA,[1]; gene ACTG1,0.28
same,mRNA,[1]; gene AGRN,0.50
same,mRNA,[1]; gene ALKBH7,0.51
same,mRNA,[1]; gene AP2A1,0.42
same,mRNA,[1]; gene ARD1A,0.03
same,mRNA,[1]; gene ATP5G2,0.17
same,PP242 mRNA,[1]; gene C17orf28,0.21
same,mRNA,[1]; gene C21orf66,−0.31
same,PP242 mRNA,[1]; gene CCNA1,−0.33
same,mRNA,[1]; gene CCNI,0.24
same,mRNA,[1]; gene CD44,0.43
same,mRNA,[1]; gene CIRBP,0.54
same,mRNA,[1]; gene CLPTM1,0.41
same,mRNA,[1]; gene COL6A2,0.57
same,mRNA,[1]; gene CRTAP,0.33
same,PP242 mRNA,[1]; gene DDX51,0.17
same,PP242 mRNA,[1]; gene DGCR2,0.05
same,mRNA,[1]; gene ECSIT,0.26
same,PP242 mRNA,[1]; gene EEF1A1,0.29
same,mRNA,[1]; gene EEF1A2,0.40
same,mRNA,[1]; gene EEF1D,0.35
same,mRNA,[1]; gene EEF1G,0.15
same,mRNA,[1]; gene EEF2,0.76
same,mRNA,[1]; gene EIF3H,0.09
same,mRNA,[1]; gene EIF3L,0.21
same,mRNA,[1]; gene EIF4B,0.61
same,mRNA,[1]; gene EVPL,0.38
same,mRNA,[1]; gene FAM83H,0.33
same,mRNA,[1]; gene FAM128B,0.43
same,mRNA,[1]; gene FASN,0.30
same,mRNA,[1]; gene GLTSCR2,0.70
same,mRNA,[1]; gene GNB2L1,0.27
same,PP242 mRNA,[1]; gene GTPBP3,0.15
same,mRNA,[1]; gene HNRNPA1,0.27
same,mRNA,[1]; gene HSPA8,−0.40
same,mRNA,[1]; gene IMPDH2,0.21
same,mRNA,[1]; gene LAMA5,0.40
same,mRNA,[1]; gene LMF2,0.62
same,PP242 mRNA,[1]; gene MAPK6,0.10
same,PP242 mRNA,[1]; gene MAPKAPK2,−0.22
same,mRNA,[1]; gene MTA1,0.21
same,mRNA,[1]; gene NCLN,0.29
same,PP242 mRNA,[1]; gene NFATC21P,0.08
same,PP242 mRNA,[1]; gene NR2F1,0.87
same,mRNA,[1]; gene PABPC1,0.16
same,mRNA,[1]; gene PABPC4,0.40
same,mRNA,[1]; gene PACS1,0.45
same,mRNA,[1]; gene PFDN5,0.04
same,mRNA,[1]; gene PGLS,0.21
same,mRNA,[1]; gene PGM1,0.23
same,mRNA,[1]; gene PNKP,0.33
same,PP242 mRNA,[1]; gene PRKD3,−0.46
same,mRNA,[1]; gene PTGES2,0.17
same,mRNA,[1]; gene RABGGTB,0.20
same,PP242 mRNA,[1]; gene RBPJ,0.17
same,mRNA,[1]; gene RPL3,0.22
same,mRNA,[1]; gene RPL4,0.10
same,mRNA,[1]; gene RPL7,0.01
same,mRNA,[1]; gene RPL7A,0.15
same,mRNA,[1]; gene RPL9,−0.08
same,mRNA,[1]; gene RPL10,0.25
same,mRNA,[1]; gene RPL10A,0.14
same,mRNA,[1]; gene RPL11,0.14
same,mRNA,[1]; gene RPL12,0.12
same,mRNA,[1]; gene RPL13,0.26
same,mRNA,[1]; gene RPL13A,0.30
same,mRNA,[1]; gene RPL15,0.19
same,mRNA,[1]; gene RPL18A,0.23
same,mRNA,[1]; gene RPL19,0.11
same,mRNA,[1]; gene RPL21,−0.04
same,mRNA,[1]; gene RPL22,0.00
same,mRNA,[1]; gene RPL24,0.00
same,mRNA,[1]; gene RPL26,0.02
same,mRNA,[1]; gene RPL27,−0.13
same,mRNA,[1]; gene RPL27A,0.07
same,mRNA,[1]; gene RPL28,0.22
same,PP242 mRNA,[1]; gene RPL28,0.55
same,mRNA,[1]; gene RPL31,0.05
same,mRNA,[1]; gene RPL32,0.11
same,mRNA,[1]; gene RPL34,0.04
same,mRNA,[1]; gene RPL36A,−0.01
same,mRNA,[1]; gene RPL37A,0.01
same,mRNA,[1]; gene RPL39,−0.15
same,PP242 mRNA,[1]; gene RPL39,−0.42
same,mRNA,[1]; gene RPL41,−0.01
same,mRNA,[1]; gene RPLP0,0.12
same,mRNA,[1]; gene RPLP1,0.12
same,mRNA,[1]; gene RPLP2,0.14
same,mRNA,[1]; gene RPS2,0.20
same,mRNA,[1]; gene RPS3,0.24
same,mRNA,[1]; gene RPS3A,−0.06
same,mRNA,[1]; gene RPS4X,0.12
same,mRNA,[1]; gene RPS5,0.23
same,mRNA,[1]; gene RPS7,−0.04
same,mRNA,[1]; gene RPS9,0.34
same,mRNA,[1]; gene RPS12,0.04
same,mRNA,[1]; gene RPS13,−0.08
same,mRNA,[1]; gene RPS14,0.16
same,mRNA,[1]; gene RPS15,0.21
same,mRNA,[1]; gene RPS15A,0.07
same,mRNA,[1]; gene RPS19,0.23
same,mRNA,[1]; gene RPS20,−0.01
same,PP242 mRNA,[1]; gene RPS20,−0.10
same,mRNA,[1]; gene RPS21,0.09
same,mRNA,[1]; gene RPS25,−0.04
same,mRNA,[1]; gene RPS27,0.07
same,PP242 mRNA,[1]; gene RPS27,0.06
same,mRNA,[1]; gene RPS27A,−0.04
same,mRNA,[1]; gene RPS28,0.28
same,PP242 mRNA,[1]; gene SDCCAG10,−0.37
same,mRNA,[1]; gene SLC19A1,0.10
same,mRNA,[1]; gene TKT,0.33
same,mRNA,[1]; gene TPT1,0.01
same,mRNA,[1]; gene TSC2,0.21
same,mRNA,[1]; gene UBA52,0.18
same,PP242 mRNA,[1]; gene UBTD2,0.25
same,PP242 mRNA,[1]; gene UCHL5,−0.51
same,PP242 mRNA,[1]; gene VHL,0.43
same,mRNA,[1]; gene VIM,0.67
same,mRNA,[1]; gene YB1,0.24
same,"expression of YB1, MTA1, vimentin, and CD44 at the protein but not transcript level",[2],selective decrease
